The record followed here is US20080268078A1, “Composition for inhibiting nitric oxide and/or prostaglandin E2 synthesis and method for inhibiting inflammation” (Yangsen Biotechnology Co., Ltd., priority 2007, published 2008).

Read-outs that look alike come from different tables or passages of the source.

Format in all cases: cell-based, murine
The subject of series [1] is nitric oxide synthesis in RAW 264.7 cells. Briefly: Suppression of nitric oxide synthesis (nitrite, Griess reagent) in LPS-stimulated RAW 264.7 cells. Conditions: Mus musculus, read-out: IC50 (inhibitory concentration at 50%) of nitric oxide synthesis. On the procedure: (§1) The murine macrophage/monocyte RAW 264.7 cells were obtained from the American Type Culture Collection (ATCC) and maintained in Dulbecco's modified Eagle's medium (DMEM) with 10% fetal bovine serum at 37° C. in 5% CO2 humidified air. In this example, cells were plated at a density of 10^6 cells/ml in 96-well plates for 24 hours, and then stimulated with LPS (100 ng/ml) in the presence of different concentrations of butylidene phthalide, citronellol, or geraniol. After 20 hours, the supernatant of the medium was collected and analyzed. In nitric oxide analysis, the concentration of butylidene phthalide was 250 μM, 500 μM, and 1000 μM, the concentration of citronellol was 50 μM, 500 μM, and 750 μM, and the concentration of geraniol was 50 μM, 500 μM, 750 μM, and 1000 μM, separately. In the control group, the cells were not treated with butylidene phthalide, citronellol, or geraniol. Because nitric oxide was unstable, nitrite was detected (Green et al., 1981; Kang et al., 1999a). 80 μl of the culture medium were mixed with an equal volume of Griess reagent (0.1% naphthylethylenediamine dihydrochloride and 1% sulfanilamide in 5% phosphoric acid), and then the absorbance at 550 nm was measured. The nitrite concentration was determined using a curve calibrated on sodium nitrite standards. […] Referring to FIGS. 1a-1c, butylidene phthalide, citronellol, and geraniol can suppress the synthesis of nitric oxide, wherein the suppression ability of citronellol was better than butylidene phthalide or geraniol, separately.

For series [2], the system named is prostaglandin E2 synthesis in RAW 264.7 cells. Briefly: Suppression of prostaglandin E2 synthesis (EIA) in LPS-stimulated RAW 264.7 cells. Conditions: Mus musculus, read-out: IC50 of prostaglandin E2 synthesis. As to the method: as §1
The same procedure carried out in Example 1 was repeated with the exception that the detection of the nitric oxide was changed to detect prostaglandin E2 by prostaglandin E2-monoclonal enzyme immunoassay kit (EIA, Cayman Chem., Ann Arbor, Mich.). The concentration of butylidene phthalide was 5 μM, 50 μM, 250 μM, 500 μM, and 1000 μM, the concentration of citronellol was 50 μM, 500 μM, and 750 μM and the concentration of geraniol was 50 μM, 500 μM, and 750 μM, separately. […]

Series [3] has as its system RAW264.7 cell. The experiment in a line: Cell viability assay (MTT). Conditions: 50 μM to 1000 μM (citronellol to 750 μM), LPS-stimulated, 20 hours.
[4] abbreviates: RAW264.7, RAW 264.7 cells, LPS 100 ng/ml, 20 hours, nitrite by Griess reagent.
[5] abbreviates: RAW264.7, RAW 264.7 cells, LPS 100 ng/ml, 20 hours, PGE2 EIA kit.

With `CCCC=C1OC(=O)c2ccccc21` [butylidene phthalide], the IC50 in series [1] (RAW264.7, 20 h) was 406 µM; in series [2] (RAW264.7, 20 h) it was 49.6 µM. In addition, in series [3], the “RAW264.7 cell viability by MTT assay” value is “did not affect cell viability”.

As for `CC(C)=CCCC(C)CCO` (stereo not shown) [citronellol], the IC50 in series [1] (setting [4]) is 295 µM; in series [2] (setting [5]) it was 26.9 µM.

On to `CC(C)=CCC/C(C)=C/CO` [geraniol], for which the IC50 in series [1] (setting [4]) was 403 µM; in series [2] (setting [5]), 372 µM.
